molecular target: T1, Halobacterium salinarum bacterio-rhodopsin (Halobacterium salinarum, UniProt P02945); assay: Photomarking of bacteriorhodopsin (covalent bridging after UV irradiation, fluorescence detected on gel); assay type: biochemical; conditions: compound in DPC micelles (1:50 molar), protein-compound molar ratio 1:5, 1 hour in darkness at 4° C., 45 s UV irradiation, gel read on Fluorimager with rhodamine filter
T1 construct: purchased SIGMA
T1 sequence (P02945 14-262): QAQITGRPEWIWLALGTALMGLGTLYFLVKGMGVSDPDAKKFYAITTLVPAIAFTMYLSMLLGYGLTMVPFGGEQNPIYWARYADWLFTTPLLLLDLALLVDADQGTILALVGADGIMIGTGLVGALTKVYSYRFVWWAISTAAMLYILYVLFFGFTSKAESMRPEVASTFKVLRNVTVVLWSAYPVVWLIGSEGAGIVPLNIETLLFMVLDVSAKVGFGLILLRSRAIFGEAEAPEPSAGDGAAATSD
Experimental: • Reagents: • Dodecylphosphocholine (DPC) and Halobacterium salinarum bacterio-rhodopsin are from SIGMA. Egg yolk phosphatidylcholine (PC) and cholesterol (chol, 99% pure) are from Avanti Polar Lipids (Alabaster, USA). • Preparation of the Liposomes: • PC, chol and the lipid tool (12a-c) (molar ratio 65:30:5) dissolved in chloroform are mixed in a test tube. After evaporation of the solvent with heat (45 mins at 37° C.), the dry film is hydrated by adding 300 μl of PBS at pH 7.4 in order to obtain a final concentration of lipids of 5 mM. The mixture is stirred and the resulting suspension is heated to 37° C., and then cooled in liquid nitrogen 5 times, and then passed through an extruder equipped with two 100 nm filters (35 passages). • Fluorescence Spectroscopy: • The excitation and emission spectra of the probe compounds according to the invention, within liposomes are recorded at 32° C. on a TECAN Infinite M1000 spectrofluorimeter. The lipid composition of the liposomes is PC:chol:lipid-tool 65:30:5 (molar ratio). The <> control liposomes consist of PC:chol, and their residual fluorescence is subtracted from the measured fluorescence spectra. • Photomarking of Bacteriorhodopsin: • DPC is added to a compound as a solution in chloroform-methanol (2/1, v/v) in the compound/detergent proportion of 1:50 molar. After evaporation in a high vacuum for 2 hours, the dry lipid film is hydrated by adding 50 μL of distilled water and 50 μl of Tris-HCl pH 8.0. The bacterio-rhodopsin resuspended in distilled water, is incubated with the compounds according to invention in detergent micelles, in a protein-compound molar ratio of 1:5. […] After migration, the gel is first analyzed on a Fluorimager Typhoon 8600 equipped with a rhodamine filter, in order to detect fluorescence; the gel is then colored with Coomassie blue for viewing all the protein bands. […]

Row | SMILES | Intensity of the photomarking signal (arbitrary units - AU)
1 | CCCCCCc1ccc(C(=O)c2ccc(CCCCCC(=O)O)cc2)cc1 [1a, 6-(4-(4-n-hexylbenzoyl)phenyl)hexanoic acid] | 5 AU
2 | Cc1ccc(C(=O)c2ccc(CCCCCCCCCCC(=O)O)cc2)cc1 [1b] | 10 AU
3 | CCCCCCCCCCc1ccc(C(=O)c2ccc(CC(=O)O)cc2)cc1 [1c, (4-(4-decylbenzoyl)phenyl)ethanoic acid] | 1 AU

From patent US9234848B2, “Compounds having chromophore and photoreactive groups” (CENTRE NATIONAL DE LA RECHERCHE SCIENTIFIQUE (C.N.R.S.), priority 2011, dated 2016)
